Experimental data taken from DBAASP.
Values after ≈ are worked out from the molar mass of the structure shown.

What was measured:
Assay in all cases: ≥ marks a high value that may be exact or a test limit, other limits are often not marked, values filed in µg/mL are converted to µM
[1] = test system: Klebsiella pneumoniae ATCC 700603
Acinetobacter baumannii = test system: Acinetobacter baumannii
[2] = test system: Pseudomonas aeruginosa ATCC 9027
[3] = test system: Staphylococcus aureus ATCC 25923
[4] = test system: Escherichia coli ATCC 25922
[5] = test system: Bacillus subtilis ATCC 23857
Escherichia coli B = test system: Escherichia coli B
Bacillus subtilis 168 = test system: Bacillus subtilis 168
Staphylococcus aureus = test system: Staphylococcus aureus
Pseudomonas aeruginosa = test system: Pseudomonas aeruginosa
[6] = test system: Acinetobacter baumannii ATCC 19606
[7] = test system: Enterococcus faecalis ATCC 29212
[8] = test system: Pseudomonas aeruginosa ATCC 27853
[9] = test system: Staphylococcus epidermidis ATCC 12228
[10] = test system: Candida albicans ATCC 10231

| Structure (SMILES) | MIC [3] [µM] | MIC [4] [µM] | MIC [5] [µM] | MIC (Escherichia coli B) [µM] | MIC (Bacillus subtilis 168) [µM] | MIC (Staphylococcus aureus) [µM] | MIC (Pseudomonas aeruginosa) [µM] | other results |
| --- | --- | --- | --- | --- | --- | --- | --- | --- |
| CC[C@H](C)[C@H](NC(=O)[C@H](C)N)C(=O)N[C@@H](CC(C)C)C(=O)N[C@@H](CCCN=C(N)N)C(=O)N[C@@H](CCCCN)C(=O)N[C@@H](C)C(=O)N[C@H](C(=O)N[C@@H](CCCN=C(N)N)C(=O)N[C@@H](CCCN=C(N)N)C(=O)N[C@@H](CC(C)C)C(=O)N[C@H](C(=O)N[C@@H](CCC(N)=O)C(=O)N[C@@H](CC(C)C)C(=O)N[C@H](C(=O)N[C@H](C(=O)N[C@@H](CO)C(=O)NCC(=O)O)C(C)C)[C@@H](C)CC)C(C)C)[C@@H](C)O [AILRKATRRLVQLIVSG] | > 25 | > 25 | – | – | – | – | – | MIC [1]: > 25 µM; MIC (Acinetobacter baumannii): 25 µM (≈ 47.4 µg/mL); MIC [2]: > 25 µM |
| CC[C@H](C)[C@H](NC(=O)CN)C(=O)N[C@@H](CCCCN)C(=O)N[C@@H](CCCN=C(N)N)C(=O)NCC(=O)N[C@H](C(=O)N[C@H](C(=O)N[C@@H](CCCCN)C(=O)N[C@H](C(=O)N[C@H](C(=O)N[C@@H](CCCCN)C(=O)N[C@@H](CCCN=C(N)N)C(N)=O)[C@@H](C)CC)[C@@H](C)CC)[C@@H](C)CC)[C@@H](C)CC [GIKRGIIKIIKR] | – | > 128 | ≥ 32 | – | – | – | – | – |
| CC(C)C[C@H](NC(=O)[C@H](CC(C)C)NC(=O)[C@@H](NC(=O)[C@H](CCCCN)NC(=O)[C@H](C)NC(=O)[C@H](CCCN=C(N)N)NC(=O)[C@H](CCCCN)NC(=O)[C@H](C)NC(=O)[C@H](CC(C)C)NC(=O)CN)[C@@H](C)O)C(N)=O [GLAKRAKTLL] | > 512 | > 512 | ≥ 512 | – | – | – | – | MIC [6]: > 512 µM; MIC [1]: > 512 µM; MIC [7]: > 512 µM; MIC [8]: > 512 µM; MIC [9]: > 512 µM |
| CC(C)C[C@H](NC(=O)[C@H](Cc1ccc(O)cc1)NC(=O)[C@H](CCCCN)NC(=O)[C@H](CC(C)C)NC(=O)[C@H](CC(C)C)NC(=O)[C@H](CCCCN)NC(=O)[C@H](CCCCN)NC(=O)[C@H](Cc1ccccc1)NC(=O)[C@H](CC(C)C)NC(=O)[C@H](CCCN=C(N)N)NC(=O)[C@@H](N)CCCCN)C(=O)N[C@@H](CCCN=C(N)N)C(=O)N[C@@H](CCCCN)C(=O)N[C@@H](Cc1ccccc1)C(=O)O [KRLFKKLLKYLRKF] | 0.531 (≈ 1 µg/mL) | 0.531 (≈ 1 µg/mL) | – | – | – | – | 2.13 (≈ 4 µg/mL) | MIC [6]: 1.06 µM (≈ 2 µg/mL); MIC (Acinetobacter baumannii): 1.06 µM (≈ 2 µg/mL); MIC [8]: 1.06 µM (≈ 2 µg/mL); MIC [10]: 2.13 µM (≈ 4 µg/mL) |
| CC[C@H](C)[C@H](NC(=O)CNC(=O)[C@@H](N)CCSC)C(=O)N[C@H](C(=O)N[C@@H](C)C(=O)NCC(=O)N[C@H](C(=O)N[C@H](C(=O)N[C@@H](CCCCN)C(=O)N[C@@H](Cc1ccccc1)C(=O)N[C@H](C(=O)N[C@@H](CCCCN)C(=O)NCC(=O)N[C@@H](CC(C)C)C(=O)N[C@H](C(=O)N[C@@H](CCC(=O)O)C(=O)N[C@@H](CCCCN)C(=O)N[C@@H](Cc1ccccc1)C(=O)N[C@H](C(=O)NCC(=O)N[C@@H](CCCCN)C(=O)O)[C@@H](C)O)[C@@H](C)CC)[C@@H](C)CC)[C@@H](C)CC)[C@@H](C)CC)[C@@H](C)CC [MGIIAGIIKFIKGLIEKFTGK] | – | > 128 | ≥ 128 | – | – | – | – | – |
| CC[C@H](C)[C@H](NC(=O)[C@H](CCCCN)NC(=O)[C@@H]1CCCN1C(=O)[C@H](CC(C)C)NC(=O)[C@@H](NC(=O)[C@H](CCCCN)NC(=O)[C@H](CCCCN)NC(=O)[C@H](Cc1c[nH]c2ccccc12)NC(=O)[C@H](CC(N)=O)NC(=O)[C@@H](N)C(C)C)C(C)C)C(=O)N[C@H](C(=O)N[C@@H](CCCCN)C(=O)N[C@H](C(=O)N[C@@H](C)C(=O)N[C@@H](CCCCN)C(N)=O)C(C)C)[C@@H](C)CC [VNWKKVLPKIIKVAK] | – | – | – | 5 (≈ 8.82 µg/mL) | 0.9 (≈ 1.59 µg/mL) | > 100 | 100 (≈ 176 µg/mL) | – |

Continued, in another order:

| MIC [3] [µM] | MIC [4] [µM] | MIC [5] [µM] | MIC (Escherichia coli B) [µM] | MIC (Bacillus subtilis 168) [µM] | MIC (Staphylococcus aureus) [µM] | MIC (Pseudomonas aeruginosa) [µM] | Structure (SMILES) | other results |
| --- | --- | --- | --- | --- | --- | --- | --- | --- |
| – | – | – | ≥ 40 | 9.3 (≈ 12.4 µg/mL) | > 100 | > 100 | CC[C@H](C)[C@H](NC(=O)[C@H](Cc1cnc[nH]1)NC(=O)[C@H](CCCCN)NC(=O)[C@H](CC(C)C)NC(=O)[C@H](CC(C)C)NC(=O)[C@H](CO)NC(=O)[C@H](CCSC)NC(=O)[C@H](C)NC(=O)[C@H](CCCCN)NC(=O)CN)C(=O)N[C@@H](CC(C)C)C(=O)N[C@@H](CCCCN)C(N)=O [GKAMSLLKHILK] | – |
| – | – | – | 20 (≈ 28.2 µg/mL) | 2.7 (≈ 3.81 µg/mL) | 130 (≈ 183 µg/mL) | 100 (≈ 141 µg/mL) | CC[C@H](C)[C@H](NC(=O)[C@H](Cc1cnc[nH]1)NC(=O)[C@H](CCCCN)NC(=O)[C@H](CC(C)C)NC(=O)[C@H](C)NC(=O)[C@H](CO)NC(=O)[C@H](CCSC)NC(=O)[C@H](Cc1c[nH]c2ccccc12)NC(=O)[C@H](CCCCN)NC(=O)CN)C(=O)N[C@@H](CC(C)C)C(=O)N[C@@H](CCCCN)C(N)=O [GKWMSALKHILK] | – |
| – | – | – | 3.5 (≈ 5.34 µg/mL) | 1.3 (≈ 1.98 µg/mL) | 13.8 (≈ 21.1 µg/mL) | 25 (≈ 38.1 µg/mL) | CSCC[C@H](NC(=O)[C@H](Cc1c[nH]c2ccccc12)NC(=O)[C@H](CCCCN)NC(=O)CN)C(=O)N[C@@H](CO)C(=O)N[C@@H](CC(C)C)C(=O)N[C@@H](CC(C)C)C(=O)N[C@@H](CCCCN)C(=O)N[C@@H](Cc1cnc[nH]1)C(=O)N[C@@H](Cc1c[nH]c2ccccc12)C(=O)N[C@@H](CC(C)C)C(=O)N[C@@H](CCCCN)C(N)=O [GKWMSLLKHWLK] | – |
| – | – | – | 2.5 (≈ 3.61 µg/mL) | 1.8 (≈ 2.6 µg/mL) | 10.8 (≈ 15.6 µg/mL) | 50 (≈ 72.2 µg/mL) | CC[C@H](C)[C@H](NC(=O)[C@H](CCC(N)=O)NC(=O)[C@H](CCCCN)NC(=O)[C@H](CC(C)C)NC(=O)[C@H](CC(C)C)NC(=O)[C@H](CO)NC(=O)[C@H](CCSC)NC(=O)[C@H](Cc1c[nH]c2ccccc12)NC(=O)[C@H](CCCCN)NC(=O)CN)C(=O)N[C@@H](CC(C)C)C(=O)N[C@@H](CCCCN)C(N)=O [GKWMSLLKQILK] | – |
| 32 (≈ 46.9 µg/mL) | 8 (≈ 11.7 µg/mL) | 8 (≈ 11.7 µg/mL) | – | – | – | – | CC[C@H](C)[C@H](NC(=O)[C@H](CCCCN)NC(=O)[C@H](CCCCN)NC(=O)[C@H](C)NC(=O)[C@@H](NC(=O)[C@H](C)NC(=O)[C@H](CC(C)C)NC(=O)[C@H](C)NC(=O)[C@H](C)NC(=O)[C@H](CCCCN)NC(=O)[C@H](CC(C)C)NC(=O)[C@H](CC(N)=O)NC(=O)[C@@H](N)CC(C)C)C(C)C)C(=O)N[C@@H](CC(C)C)C(N)=O [LNLKAALAVAKKIL] | MIC [1]: 16 µM (≈ 23.4 µg/mL); MIC [2]: 32 µM (≈ 46.9 µg/mL) |
| – | – | – | 1.4 (≈ 2.47 µg/mL) | 0.7 (≈ 1.24 µg/mL) | 9 (≈ 15.9 µg/mL) | 23.1 (≈ 40.8 µg/mL) | CC[C@H](C)[C@H](NC(=O)[C@H](CCCCN)NC(=O)[C@H](CCCCN)NC(=O)[C@H](Cc1c[nH]c2ccccc12)NC(=O)[C@@H](NC(=O)[C@@H](N)CC(N)=O)C(C)C)C(=O)N[C@@H](CC(C)C)C(=O)NCC(=O)N[C@@H](CCCCN)C(=O)N[C@H](C(=O)N[C@H](C(=O)N[C@@H](CCCCN)C(=O)N[C@H](C(=O)N[C@H](C(=O)N[C@@H](CCCCN)C(N)=O)C(C)C)C(C)C)[C@@H](C)CC)[C@@H](C)CC [NVWKKILGKIIKVVK] | – |
| – | – | – | 2.3 (≈ 3.41 µg/mL) | 1.1 (≈ 1.63 µg/mL) | 9.2 (≈ 13.6 µg/mL) | 50 (≈ 74.1 µg/mL) | CC[C@H](C)[C@H](NC(=O)[C@H](Cc1cnc[nH]1)NC(=O)[C@H](CCCCN)NC(=O)[C@H](CC(C)C)NC(=O)[C@H](CC(C)C)NC(=O)[C@H](CO)NC(=O)[C@H](CCSC)NC(=O)[C@H](Cc1c[nH]c2ccccc12)NC(=O)[C@H](CCCCN)NC(=O)[C@@H](N)CO)C(=O)N[C@@H](CC(C)C)C(=O)N[C@@H](CCCCN)C(N)=O [SKWMSLLKHILK] | – |
